Values after ≈ are worked out from the molar mass of the structure shown. Counter-ions that a name gives are not always drawn. Where a SMILES comes first, the peptide text is derived from it. [ ]: non-standard residue; d: D form. The star is where a group is joined. pGlu = O=C1CC[C@@H](C(=O)O)N1; Octanoyl = CCCCCCCC(=O)*
Key:
[1] = test system: oxazolone-induced atopic dermatitis (AD) mouse models; assay: Oxazolone-induced atopic dermatitis mouse model, clinical lesions; format: in vivo
Protocol: The effect of topical administration of ZEP3 (SEQ ID NO: 1), and its sodium salt form (ZEP3Na), and ZEP4 (SEQ ID NO: 2) was evaluated in oxazolone-induced atopic dermatitis (AD) mouse models. This model is widely used and well described in literature (Avci et al. 2013 Expert Opin Drug Discov. 8, 331-355; Petersen T. K. 2006, Basic Clin. Pharmacol. Toxicol. 99, 104-115) as an accepted animal model for evaluating drugs for AD therapy in humans.

[2] = Oxazolone-induced atopic dermatitis mouse model, tolerability and bodyweights
Protocol: Method: Animals were sensitized by topical administration of oxazolone 2% in ethanol on the back at Day 0 after shaving and depilation of the animals (sensitization phase). Then a challenge was performed one week later by topical administration of oxazolone 1% in ethanol on the back and on right ear every 2 days at 10 occasions namely for total 3 weeks. The tested compounds were applied during the challenge phase every 2 days via the topical route as ready to use cream formulations. The surface of application was the same as for challenge (back+ear). 100 μL were deposited on the back and the back was smoothly massaged. Then, remaining formulation on finger glove was deposited on the internal face of the ear. Every other day, back skin and ears thickness were measured using caliper; and the following clinical scores were recorded from back skin: erythema and scaling. Animals were also weighed every other day (approximate bodyweights of a mouse at startup is about 20 g).
The formulations used for topical administration of the tested compound were: ZEP3 1% cream having pH 7.1 and comprising: Propylene glycol, Polysorbate 80, Edetate Disodium, Silicon dioxide (syloid), Methylparaben, White petrolatum, Isopropyl Myristate, Cetyl Alcohol and Glyceryl Monostearate. ZEP3Na 1% cream having pH 8.0 and comprising: Propylene glycol, Polysorbate 80, Edetate Disodium, Silicon dioxide (syloid), Methylparaben, White petrolatum, Isopropyl Myristate, Cetyl Alcohol and Glyceryl Monostearate. ZEP4 1% cream having pH 4.5 and comprising: Propylene glycol, Glycerin, Polysorbate 80, EDTA Disodium, Xanthan Gum, Silicon dioxide (syloid), Methylparaben, White petrolatum, Isopropyl Myristate, Cetyl Alcohol, Stearyl Alcohol, and Glyceryl Monostearate (kolliwax).

[3] = test system: CMC type arthritis; assay: Treatment of CMC arthritis of the big toe in a subject; format: in vivo, human; conditions: 0.5% cream applied on the swollen area 5 times a day
Excerpt: Their toe was swollen, red, and so painful that it prevented them from walking. ZEP3 sodium salt at 0.5% cream was applied on the swollen area 5 times a day.

[4] = test system: TNF alpha; assay: TNF alpha secretion in LPS treated human keratinocytes (ELISA); format: cell-based; conditions: for TNFα: ZEP3Na without DMSO; for Fold Change: refers to TNF-α concentration in sample #2; for % Inhibition: vs corresponding control group without peptide
Protocol: Methods: SCCE020 cells (EpiGRO™ Human Epidermal Keratinocytes) were grown in complete growth medium (EpiGRO™ Human Keratinocytes Complete Medium; Millipore Cat. #SCMK001) for 4 passages. At passage 5, cells were seeded (3*10^5 cells/well) in triplicates in a volume of 1 ml complete growth medium per well. Additional 3 control wells contained only medium without cells. Upon adherence, cell medium was replaced by basal medium containing L-Glutamine without supplements (starvation medium) and cells were starved overnight. The next day, 24 hours after seeding, the cells were treated with ZEP3 or ZEP3Na or appropriate diluent (PBS or DMSO). After 4 hours of incubation, LPS (from E. Coli 055: B5; Sigma Cat. #L6529-1MG) was added to the wells in final concentration of 20 or 30 μg/ml.
Cells were incubated for 24 hours in tissue culture incubator. After collecting cell supernatants from all wells, cells from treatment groups: 1, 2, 3, 8, 9, 10, 13, 14 (without DMSO groups) were pelleted and stored at −80° C. for further analyses. The cells were collected from as following: upon supernatants collection, the wells were rinsed with trypsin, then incubated with trypsin until they detached from the plate surface, centrifuged, washed with PBS and stored as a cell pellet. TNF-α concentration in the supernatants was measured by ELISA (Quantikine HS ELISA; R&D Systems Cat. #HSTA00D), in 5 replicates.
TNF alpha concentration in the samples was calculated according to the standard curve trend line equation: =0.063x+0.1718. Percent inhibition of TNF alpha production was calculated in each treatment group in comparison to the corresponding control group (same conditions, without peptide).

[5] = physchem; conditions: water
[6] = peptide 0.02 mg/ml, LPS 20 μg/ml
[7] = peptide 0.2 mg/ml, LPS 20 μg/ml
[8] = peptide 0.2 mg/ml, LPS 30 μg/ml
[9] = peptide 0.4 mg/ml, LPS 20 μg/ml

C[C@H]1C[C@H]2[C@@H]3CCC4=CC(=O)C=C[C@]4(C)[C@@]3(F)[C@@H](O)C[C@]2(C)[C@@]1(O)C(=O)CO [Betamethasone, reference compound]
Back skin thickness decrease ([1]; day 28, topical, 2.5 mg/kg): 40%
bodyweight loss ([2]; topical, 2.5 mg/kg): 8-10%

CCCCCCCC(=O)NCCCC[C@H](NC(=O)[C@H](Cc1c[nH]c2ccccc12)NC(=O)[C@H](CC(N)=O)NC(=O)[C@@H]1CCC(=O)N1)C(=O)O [ZEP3Na, pGlu-Asn-Trp-Lys(Octanoyl)-OH.nNa] ([pGlu]NWK(Octanoyl)-OH)
time to relief reported by the subject [3]: within one day
time to resolution of the condition [3]: 3 to 4 days
TNF alpha levels / production in LPS treated human keratinocytes (in words) ([4]; compared with cells stimulated with LPS alone): dose dependent inhibition
TNFα ([4]; peptide 0.02 mg/ml, LPS 20 μg/ml, ZEP3 in 0.025% DMSO): 9.2 pg/mL
Fold Change [4, 6]: 3.3
% Inhibition [4, 6]: 26%
TNFα ([4]; peptide 0.2 mg/ml, LPS 20 μg/ml, ZEP3 in 0.05% DMSO): 6.7 pg/mL
Fold Change [4, 7]: 2.4
% Inhibition [4, 7]: 46%
TNFα ([4]; peptide 0.2 mg/ml, LPS 30 μg/ml, ZEP3 in 0.10% DMSO): 13.1 pg/mL
Fold Change [4, 8]: 4.7
% Inhibition [4, 8]: 38%
TNFα ([4]; peptide 0.4 mg/ml, LPS 20 μg/ml, ZEP3 in 0.10% DMSO): 5.9 pg/mL
Fold Change [4, 9]: 2.1
% Inhibition [4, 9]: 52%
solubility [5]: 50 mg/mL (≈ 73.1 mM)
Scaling: period of reduction ([1]; 1% cream topical, 50 mg/kg, scaling score of back skin): from days 14 to 24
Right ear thickness, significant difference in comparison to control ([1]; days 18, 20 and 22): −18.4 to −22.7%
Erythema scoring: days with a significant difference ([1]; vs control group): day 24
total score: days with significant difference ([1]; vs control group): days 14, 18, 20 and 22
tolerability ([2]; 50 mg/kg topical to atopic dermatitis induced mice): well tolerated
Bodyweights in comparison to the excipient ([2]; day 8 to day 28): behaved normally

C[C@@H](O)[C@H](NC(=O)[C@H](Cc1c[nH]c2ccccc12)NC(=O)[C@H](CC(N)=O)NC(=O)[C@@H]1CCC(=O)N1)C(=O)O [ZEP4 sodium salt, pGlu-Asn-Trp-Thr-OH.nNa] (HELM PEPTIDE1{[Glp].N.W.T}$$$$V2.0)
solubility [5]: 50 mg/mL

Reference: patent publication US11419913B2, “Pharmaceutical compositions for inhibiting inflammatory cytokines” (S.I.S. SHULOV INNOVATIVE SCIENCE LTD., priority 2018, dated 2022)
